# Measurements published in patent US5026708A, “Pyrimidine type mevalonolactones” (Nissan Chemical Industries Ltd., priority 1987, dated 1991).
# Structures can show the parent of a compound that is named as a salt. Where two headings read alike, the source gives them in different places.
# Key:
# [1] = system: cholesterol biosynthesis in which HMG-CoA reductase serves as a rate limiting enzyme (rat liver microsome and sup fraction); assay: Test A: Inhibition of cholesterol biosynthesis from acetate in vitro; type: biochemical, male Wistar rat; details: for Relative activities by Test A: based on the activities of CS-514 by Test A being evaluated to be 1; for IC50: Test A, rat liver microsome and sup fraction, [2-14C]sodium acetate, 2 hours at 37° C., read-out: IC50 (molar concentration), inhibitory activities by Test A
# Method: Enzyme solution was prepared from liver of male Wistar rat billialy connulated and discharged bile for over 24 hours. Liver was cut out at mid-dark and microsome and supernatant fraction which was precipitable with 40-80% of saturation of ammonium sulfate (sup fraction) were prepared from liver homogenate according to the modified merhod of Knauss et. al.; Kuroda, M., et. al., Biochim. Biophys. Acta, 489, 119 (1977). For assay of cholesterol biosynthesis, microsome (0.1 mg protein) and sup fraction (1.0 mg protein) were incubated for 2 hours at 37° C. in 200 μl of the reaction mixture containing ATP; 1 mM, Glutathione; 6 mM, Glucose-1-phosphate; 10 mM, NAD; 0.25 mM, NADP; 0.25 mM, CoA; 0.04 mM and 0.2 mM [2-^14 C]sodium acetate (0.2 μCi) with 4 μl of test compound solution dissolved in water or dimethyl sulfoxide. To stop reaction and saponify, 1 ml of 15% EtOH-KOH was added to the reactions and heated at 75° C. for 1 hour. Nonsaponifiable lipids were extracted with petroleum ether and incorporated ^14 C radioactivity was counted. Inhibitory activity of compounds was indicated with IC50.
# (§1) With respect to the compounds of the present invention, the inhibitory activities against the cholesterol biosynthesis in which HMG-CoA reductase serves as a rate limiting enzyme, were measured by the above Test A and B. The results are shown in Tables 2, 2-2 and 3. Further, the results of the measurements by Test C are also presented.
# [2] = system: cholesterol biosynthesis in Hep G2 cells; assay: Test B: Inhibition of cholesterol biosynthesis in culture cells; type: cell-based; details: acetate added at 0 hr; for Relative activities by Test B-1: based on the activities of CS-514 by Test B-1 being evaluated to be 1
# Method: Hep G2 cells at over 5th passage were seeded to 12 well plates and incubated with Dulbecco's modified Eagle (DME) medium containing 10% of fetal bovine serum (FBS) at 37° C., 5% CO2 until cells were confluent for about 7 days. Cells were exposed to the DME medium containing 5% of lipoprotein deficient serum (LpDS) prepared by ultracentrifugation method for over 24 hours. Medium was changed to 0.5 ml of fresh 5% LpDS containing DME before assay and 10 μl of test compound solution dissolved in water or DMSO were added. 0.2 μCi of [2-^14 C]sodium acetate (20 μl ) was added at 0 hr(B-1) or 4 hrs(B-2) after addition of compounds. After 4 hrs further incubation with [2-^14 C]sodium acetate, medium was removed and cells were washed with phosphate buffered saline(PBS) chilled at 4° C. Cells were scraped with rubber policeman and collected to tubes with PBS and digested with 0.2 ml of 0.5 N KOH at 37° C. Aliquot of digestion was used for protein analysis and remaining was saponified with 1 ml of 15% EtOH-KOH at 75° C. for 1 hour. Nonsaponifiable lipids were extracted with petroleum ether and ^14 C radioactivity was counted. Counts were revised by cell protein and indicated with DPM/mg protein. Inhibitory activity of compounds was indicated with IC50.
# as §1
# Test D: Acute toxicity = assay: Test D: Acute toxicity; set-up: species or system ICR male mice; details: mouse, in vivo, oral, 0.5% CMC suspension, read-out: mortality after seven days
# Method: A 0.5% CMC suspension of a test compound was orally administered to ICR male mice (group of from one to three mice). The acute toxicity was determined based on the mortality after seven days. With compound I-5-8 and I-5-11 of the present invention, the mortality was 0% even when they were orally administered in an amount of 824 mg/kg and 982 mg/kg, respectively.
# cholesterol biosynthesis = assay: Test C: Inhibition of cholesterol biosynthesis in vivo; set-up: species or system Male Sprague-Dawley rats; details: rats
# Method: Male Sprague-Dawley rats weighing about 150 g were fed normal Purina chow diet and water ad libitum, and exposed to 12 hours light/12 hours dark lighting pattern (2:00 PM-2:00 AM dark) prior to use for in vivo inhibition test of cholesterol biosynthesis. Animals were separated groups consisting of five rats as to be average mean body weight in each groups. […] As control, rats were orally administered only water or vehicle. At 90 minutes after sample administration, rats were injected intraperitoneally with 10 μCi of [2-^14 C]sodium acetate at volume of 0.2 ml per one. 2 Hours later, blood samples were obtained and serum were separated immediately. Total lipids were extracted according to the method of Folch et al. and saponified with EtOH-KOH. Nonsaponifiable lipids were extracted with petroleum ether and radio activity incorporated into nonsaponifiable lipids was counted.
# Inhibitory activity was indicated as percent decrease of counts in testing groups (DPM/2 ml serum/2 hours) from that in control group.
SMILES,Relative activities by Test A [1],Relative activities by Test B-1 [2],other results
O=C(O)CC(O)CC(O)/C=C/c1c(-c2ccc(F)cc2)nc(-c2ccccc2)nc1C1CC1 (centres unmarked) [Compound I-5-11],15.9,28.4,mortality at 168 h (Test D: Acute toxicity; 982 mg/kg): 0%
"CC[C@H](C)C(=O)O[C@H]1C[C@@H](C)C=C2C=C[C@H](C)[C@H](CC[C@@H]3C[C@@H](O)CC(=O)O3)[C@H]21 [Mevinolin, reference compound]",,,IC50 [1]: 14 nM
Cc1nc(-c2ccccc2)nc(-c2ccccc2)c1/C=C/C(O)CC(O)CC(=O)O (centres unmarked) [Compound I-5-3],,,IC50 [1]: 100 nM
"Cc1nc(-c2ccccc2)nc(-c2ccc(F)cc2)c1/C=C/C(O)CC(O)CC(=O)O (centres unmarked) [Compound I-5-1, Sodium salt of (E)-3,5-dihydroxy-7-[4'-(4''-fluorophenyl)-6'methyl-2 2'-phenylpyrimidin-5'-yl]hept-6-enoic acid]",,,IC50 [1]: 18 nM
CC(C)c1nc(-c2ccccc2)nc(-c2ccc(F)cc2)c1/C=C/C(O)CC(O)CC(=O)O (centres unmarked) [Compound I-5-8],4.6,36.1,mortality at 168 h (Test D: Acute toxicity; 824 mg/kg): 0%
"CC[C@H](C)C(=O)O[C@H]1C[C@H](O)C=C2C=C[C@H](C)[C@H](CC[C@@H](O)C[C@@H](O)CC(=O)O)[C@H]21 [CS-514, reference compound]",,,"IC50 [1]: 12.5 nM; IC50 ([2]; Homo sapiens, HepG2, Test B-1, Hep G2 cells, read-out: IC50 (molar concentration), Test B-1): 1400 nM; percent decrease of counts relative to control group (cholesterol biosynthesis; oral administration of 10 mg/kg): 55%"
O=C(O)CC(O)CC(O)/C=C/c1c(-c2ccc(F)cc2)nc(-c2cccc(C(F)(F)F)c2)nc1C1CC1 (centres unmarked) [Compound I-5-17],12.2,,
CCOC(=O)CC(O)CC(O)/C=C/c1c(-c2ccc(F)cc2)nc(-c2cccc(Cl)c2)nc1C1CC1 (centres unmarked) [Compound I-1-13],,41.6,
CCOC(=O)CC(O)CC(O)/C=C/c1c(-c2ccc(F)cc2)nc(Cc2ccccc2)nc1C1CC1 (centres unmarked) [Compound I-1-12],,41.3,
Cc1nc(C)c(/C=C/C(O)CC(O)CC(=O)O)c(-c2ccccc2)n1 (centres unmarked) [Compound I-5-2],,,IC50 [1]: 5000 nM
Cc1ccc(-c2nc(-c3ccc(F)cc3)c(/C=C/C(O)CC(O)CC(=O)O)c(C3CC3)n2)cc1 (centres unmarked) [Compound I-5-15],14.5,58.5,percent decrease of counts relative to control group (cholesterol biosynthesis; oral administration of 0.5 mg/kg): 35%
CCOC(=O)CC(O)CC(O)/C=C/c1c(-c2ccc(F)cc2)nc(-c2ccc(OC)cc2)nc1C1CC1 (centres unmarked) [Compound I-1-14],,72.5,

# Continued, in another order:
Relative activities by Test A [1],SMILES,Relative activities by Test B-1 [2],other results
1.9,O=C(O)CC(O)CC(O)/C=C/c1c(-c2ccc(F)cc2)nc(-c2ccc(-c3ccccc3)cc2)nc1C1CC1 (centres unmarked) [Compound I-5-16],,
16.1,COc1ccc(-c2nc(-c3ccc(F)cc3)c(/C=C/C(O)CC(O)CC(=O)O)c(C3CC3)n2)cc1 (centres unmarked) [Compound I-5-14],,
15.9,O=C(O)CC(O)CC(O)/C=C/c1c(-c2ccc(F)cc2)nc(-c2cccc(Cl)c2)nc1C1CC1 (centres unmarked) [Compound I-5-13],,
14.8,O=C(O)CC(O)CC(O)/C=C/c1c(-c2ccc(F)cc2)nc(Cc2ccccc2)nc1C1CC1 (centres unmarked) [Compound I-5-12],46.3,
5.2,"CC(C)c1nc(-c2ccccc2)nc(-c2ccc(F)cc2)c1/C=C/[C@@H]1C[C@@H](O)CC(=O)O1 (relative stereo) [Compound I-3-8, (E)-6-[4'-(4''-fluorophenyl)-6'-(1''-methylethyl)-2'-phenylpyrimidin-5 '-ylethenyl]-4-hydroxy-3,4,5,6-tetrahydro-2H-pyran-2-one]",,
